Experiments:
[1] = Cmax in Sprague-Dawley rat at 10 mg/kg, po; format: ADME, organism-based; parameters: route oral, dose 10 mg/kg; settings: in vivo
[2] = biological target: Somatostatin receptor type 3 (Homo sapiens, UniProt P32745); assay: Agonist activity at human SST3
[3] = biological target: Voltage-gated inwardly rectifying potassium channel KCNH2 (Homo sapiens, UniProt Q12809); assay: Inhibition of human ERG
[4] = biological target: Somatostatin receptor type 5 (Homo sapiens, UniProt P35346); assay: Agonist activity at human SST5
Chain of Somatostatin receptor type 5 (P35346 whole entry): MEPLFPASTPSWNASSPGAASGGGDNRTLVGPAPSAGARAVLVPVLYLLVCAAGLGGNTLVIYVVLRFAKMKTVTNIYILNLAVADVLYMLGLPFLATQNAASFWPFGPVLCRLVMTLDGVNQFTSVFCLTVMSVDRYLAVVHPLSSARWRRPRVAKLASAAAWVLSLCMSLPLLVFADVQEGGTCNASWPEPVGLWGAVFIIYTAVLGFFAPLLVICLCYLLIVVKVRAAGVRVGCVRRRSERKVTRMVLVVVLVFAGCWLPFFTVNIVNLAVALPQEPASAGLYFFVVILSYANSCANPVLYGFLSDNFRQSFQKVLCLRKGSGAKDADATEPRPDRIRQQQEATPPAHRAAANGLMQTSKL

[5] = Half life in human liver microsomes; format: ADME, Microsome
[6] = biological target: Cytochrome P450 2C9 (Homo sapiens, UniProt P11712); assay: Inhibition of CYP2C9 (unknown origin); format: ADME
Chain of Cytochrome P450 2C9 (P11712 whole entry): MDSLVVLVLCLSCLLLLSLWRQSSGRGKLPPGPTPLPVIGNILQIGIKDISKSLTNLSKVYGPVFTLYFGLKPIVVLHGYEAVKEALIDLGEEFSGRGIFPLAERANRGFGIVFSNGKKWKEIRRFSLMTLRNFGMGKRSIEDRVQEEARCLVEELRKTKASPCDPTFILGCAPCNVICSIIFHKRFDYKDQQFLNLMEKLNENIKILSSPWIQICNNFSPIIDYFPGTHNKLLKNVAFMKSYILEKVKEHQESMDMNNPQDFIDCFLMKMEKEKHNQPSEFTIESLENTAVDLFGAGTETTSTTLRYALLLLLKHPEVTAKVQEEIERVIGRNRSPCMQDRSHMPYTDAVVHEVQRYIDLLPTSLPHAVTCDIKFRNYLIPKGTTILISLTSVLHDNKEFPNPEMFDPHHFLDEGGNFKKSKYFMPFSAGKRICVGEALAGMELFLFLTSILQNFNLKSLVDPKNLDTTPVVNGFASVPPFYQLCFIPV

[7] = Volume of distribution at steady state in Sprague-Dawley rat at 5 mg/kg, iv; format: ADME, organism-based; settings: in vivo, read-out: Vdss
[8] = Observed clearance in Sprague-Dawley rat at 5 mg/kg, iv; format: ADME, organism-based; settings: in vivo
[9] = Oral bioavailability in Sprague-Dawley rat at 10 mg/kg; format: ADME, organism-based; settings: in vivo
[10] = Half life in rat liver microsomes; format: ADME, Microsome
[11] = biological target: Cytochrome P450 2C19 (Homo sapiens, UniProt P33261); assay: Inhibition of CYP2C19 (unknown origin); format: ADME
Chain of Cytochrome P450 2C19 (P33261 whole entry): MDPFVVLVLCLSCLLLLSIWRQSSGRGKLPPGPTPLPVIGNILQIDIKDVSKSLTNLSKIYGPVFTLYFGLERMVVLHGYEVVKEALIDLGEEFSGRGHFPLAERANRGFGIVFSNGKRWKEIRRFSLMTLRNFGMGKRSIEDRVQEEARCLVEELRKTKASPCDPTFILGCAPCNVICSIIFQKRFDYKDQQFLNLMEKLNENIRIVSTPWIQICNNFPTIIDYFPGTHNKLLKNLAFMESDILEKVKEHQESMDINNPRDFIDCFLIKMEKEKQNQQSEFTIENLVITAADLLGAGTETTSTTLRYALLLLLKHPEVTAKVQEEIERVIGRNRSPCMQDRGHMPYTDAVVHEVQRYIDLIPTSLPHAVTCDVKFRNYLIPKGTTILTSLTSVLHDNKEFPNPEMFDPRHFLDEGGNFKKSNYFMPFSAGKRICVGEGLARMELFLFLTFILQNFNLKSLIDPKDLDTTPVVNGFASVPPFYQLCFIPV

[12] = biological target: Cytochrome P450 3A4 (Homo sapiens, UniProt P08684); assay: Inhibition of CYP3A4 (unknown origin); format: ADME
Chain of Cytochrome P450 3A4 (P08684 whole entry): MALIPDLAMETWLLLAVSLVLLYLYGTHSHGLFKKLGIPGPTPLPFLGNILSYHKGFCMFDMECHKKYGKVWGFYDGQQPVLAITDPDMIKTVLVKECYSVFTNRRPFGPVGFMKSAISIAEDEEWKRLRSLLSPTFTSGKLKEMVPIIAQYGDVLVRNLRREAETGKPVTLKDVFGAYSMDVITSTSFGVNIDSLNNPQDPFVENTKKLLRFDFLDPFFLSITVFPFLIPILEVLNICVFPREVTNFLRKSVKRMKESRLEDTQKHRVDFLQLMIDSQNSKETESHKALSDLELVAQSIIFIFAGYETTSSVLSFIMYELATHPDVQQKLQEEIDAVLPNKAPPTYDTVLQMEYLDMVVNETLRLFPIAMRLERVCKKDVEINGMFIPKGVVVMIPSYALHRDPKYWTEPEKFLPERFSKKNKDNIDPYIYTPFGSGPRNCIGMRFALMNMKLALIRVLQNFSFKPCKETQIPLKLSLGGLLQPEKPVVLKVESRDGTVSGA

[13] = Half life in Sprague-Dawley rat at 5 mg/kg, iv; format: ADME, organism-based; settings: in vivo
[14] = AUC (0 to infinity) in Sprague-Dawley rat at 10 mg/kg, po; format: ADME, organism-based; parameters: time infinity, route oral, dose 10 mg/kg; settings: in vivo
[15] = tested on: Rattus norvegicus; assay: Suppression of growth hormone production in GHRH-challenged sc dosed Sprague-Dawley rat plasma administered GHRH at 1 to 8 hrs post dose and measured 5 mins after each GHRH challenge by sandwich ELISA; format: functional, organism-based; settings: dose mg/kg 0.1-10, time hrs 1-8
[16] = biological target: Somatostatin receptor type 1 (Homo sapiens, UniProt P30872); assay: Agonist activity at human SST1
Chain of Somatostatin receptor type 1 (P30872 whole entry): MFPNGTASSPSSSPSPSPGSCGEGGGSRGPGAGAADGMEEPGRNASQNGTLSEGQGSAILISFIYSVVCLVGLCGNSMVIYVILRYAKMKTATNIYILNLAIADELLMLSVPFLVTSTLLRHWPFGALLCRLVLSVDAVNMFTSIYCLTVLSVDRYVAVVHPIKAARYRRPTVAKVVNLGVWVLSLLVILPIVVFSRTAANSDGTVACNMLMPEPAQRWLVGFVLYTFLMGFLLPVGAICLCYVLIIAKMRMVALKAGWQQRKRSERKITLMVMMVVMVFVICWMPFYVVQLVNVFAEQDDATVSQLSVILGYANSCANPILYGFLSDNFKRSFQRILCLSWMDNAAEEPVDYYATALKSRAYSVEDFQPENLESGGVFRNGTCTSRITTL

Chain of Voltage-gated inwardly rectifying potassium channel KCNH2 (Q12809 whole entry): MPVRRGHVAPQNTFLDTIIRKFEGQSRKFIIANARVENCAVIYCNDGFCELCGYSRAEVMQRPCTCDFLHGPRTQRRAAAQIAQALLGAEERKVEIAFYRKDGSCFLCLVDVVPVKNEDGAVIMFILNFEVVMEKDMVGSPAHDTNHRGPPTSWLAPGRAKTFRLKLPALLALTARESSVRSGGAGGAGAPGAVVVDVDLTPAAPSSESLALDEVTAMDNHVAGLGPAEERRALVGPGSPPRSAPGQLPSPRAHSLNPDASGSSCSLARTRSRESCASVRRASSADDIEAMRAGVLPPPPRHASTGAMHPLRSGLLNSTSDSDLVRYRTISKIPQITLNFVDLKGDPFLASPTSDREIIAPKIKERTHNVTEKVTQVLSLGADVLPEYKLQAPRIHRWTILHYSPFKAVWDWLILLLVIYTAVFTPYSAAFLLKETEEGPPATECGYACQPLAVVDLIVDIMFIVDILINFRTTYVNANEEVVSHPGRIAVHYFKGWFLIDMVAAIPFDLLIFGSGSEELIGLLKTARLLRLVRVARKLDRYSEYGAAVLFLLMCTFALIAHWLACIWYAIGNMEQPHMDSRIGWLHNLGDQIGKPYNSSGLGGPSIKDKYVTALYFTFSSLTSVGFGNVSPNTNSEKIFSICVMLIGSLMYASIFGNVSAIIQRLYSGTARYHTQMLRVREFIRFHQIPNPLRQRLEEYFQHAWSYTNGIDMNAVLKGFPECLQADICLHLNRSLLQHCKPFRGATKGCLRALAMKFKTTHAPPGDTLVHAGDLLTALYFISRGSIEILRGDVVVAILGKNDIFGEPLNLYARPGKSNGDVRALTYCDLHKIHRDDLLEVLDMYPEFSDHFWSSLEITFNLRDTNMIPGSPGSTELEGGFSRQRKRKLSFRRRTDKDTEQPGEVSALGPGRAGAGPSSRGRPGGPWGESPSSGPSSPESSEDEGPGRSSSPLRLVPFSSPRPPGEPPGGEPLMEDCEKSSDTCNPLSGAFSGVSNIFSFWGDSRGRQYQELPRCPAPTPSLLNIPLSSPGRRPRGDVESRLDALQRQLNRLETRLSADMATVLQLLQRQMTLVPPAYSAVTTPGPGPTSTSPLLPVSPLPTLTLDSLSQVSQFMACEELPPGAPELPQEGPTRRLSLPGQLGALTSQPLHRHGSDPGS
Chain of Somatostatin receptor type 3 (P32745 whole entry): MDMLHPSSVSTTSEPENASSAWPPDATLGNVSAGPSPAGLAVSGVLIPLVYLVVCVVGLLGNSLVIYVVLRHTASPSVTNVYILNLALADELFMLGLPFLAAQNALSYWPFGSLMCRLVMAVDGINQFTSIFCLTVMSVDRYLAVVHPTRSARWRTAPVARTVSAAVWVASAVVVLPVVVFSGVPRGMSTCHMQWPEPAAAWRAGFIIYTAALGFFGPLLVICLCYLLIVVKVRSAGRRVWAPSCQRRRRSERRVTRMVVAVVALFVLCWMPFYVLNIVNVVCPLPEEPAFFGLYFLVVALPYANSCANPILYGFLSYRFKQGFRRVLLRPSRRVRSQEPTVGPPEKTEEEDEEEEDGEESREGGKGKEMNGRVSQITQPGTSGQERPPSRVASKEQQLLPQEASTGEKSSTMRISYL

SMILES: Cc1cc(Cl)cc(-c2cnc3ncn(-c4cc(O)cc(F)c4)c(=O)c3c2CN(C)C[C@@H]2CCCN2)c1
- Cmax [1]: 43 ng/mL
- EC50 [2]: 0.00794 µM
- IC50 [3]: 3.16 µM
- EC50 [4]: > 1 µM
- half-life [5]: 35 min
- IC50 [6]: > 10 µM
- Vd [7]: 11.9 L/kg
- clearance [8]: 73 mL/min/kg
- bioavailability [9]: 14%
- half-life [10]: 23 min
- IC50 [11]: > 10 µM
- IC50 [12]: > 10 µM
- half-life [13]: 204 min
- AUC(0-inf) [14]: 329 ng·h/mL
- Activity [15]: Dose-dependent effect
- EC50 [16]: 0.316 µM
